Assay: compounds inducing NF-kB luciferase expression – cell-based, SH-SY5Y, dose response (AID 1241)
Settings: SH-SY5Y NF-kB promoter luciferase reporter, fold induction; call rule not given here

EC50, active:
O=C(NC1CCCCCCC1)c1ccc2c(c1)OCO2 11000 nM
Cc1ccc(/C=N/Nc2ccc(Cl)c(C(=O)O)c2)s1 12800 nM
Cc1ccc(Cc2cnc(NC(=O)c3ccco3)s2)cc1 1340 nM
CCOC(=O)c1sc(NC(=O)c2sccc2C)cc1C 952 nM
NC(=O)c1ccccc1N/C=C/C(=O)c1cccs1 4950 nM
C=CCNc1ncnc2c1cnn2-c1ccc(Cl)cc1 1820 nM
Cc1ccc(/C=C/C(=O)N2CCc3ccccc32)o1 1330 nM
CCNc1nc(N)nc(-c2cc(Cl)ccc2O)n1 847 nM
O=C(Nc1nc2ccccc2s1)NC1CCCCC1 2420 nM
CC(=O)c1ccc(Nc2ccc(-c3ccccc3F)nn2)cc1 838 nM
COc1ccc(-n2nc3cc(C)c(N)c(Br)c3n2)cc1 1440 nM
CCn1c(/C=C/c2ccccc2)nc2ccccc21 1580 nM
O=c1c2ccccc2cnn1-c1ccc(Br)cc1 10200 nM
COc1ccc(-c2cc(-c3ccccc3O)[nH]n2)cc1OC 2440 nM
CCOc1cccc2cc(-c3csc(NC(=O)CCC(=O)NCCN4CCCCC4C)n3)c(=O)oc12 (centres undefined) 2760 nM
COc1ccc(-c2cn3c4c(sc3n2)CCCC4)cc1 650 nM
CC(C)c1ccc(OCc2nc(-c3ccccn3)no2)c(Br)c1 1030 nM
CSCCNC(=O)c1ccc(C(C)(C)C)cc1 5250 nM
CCOc1ccc(NC(=O)c2ccco2)c([N+](=O)[O-])c1 18900 nM
O=C1CC(c2ccco2)CC2=C1C1c3ccccc3C(=O)N1c1ccccc1N2 (centres undefined) 3070 nM
Nc1ccc(Nc2nc(-c3cc4ccccc4oc3=O)cs2)cc1 2020 nM
CCC(=O)NC(=Nc1nc2ccccc2s1)NC(=O)CC 4450 nM
O=C(Nc1nc2c(s1)CCCC2)c1ccc(Br)s1 1070 nM
CC(C)(C)c1ccc(C(=O)/C=C2\NC(=O)CS2)cc1 1140 nM
COc1ccc(Nc2nc3ccccc3s2)cc1 20400 nM
O=C(c1ccc(Cl)cc1)c1coc2ccc(O)cc12 3200 nM
CN(C)S(=O)(=O)Oc1cccc(C(=O)Nc2ccc(Cl)cc2)c1 8780 nM
Cc1ccccc1-c1cc(-c2ccccc2O)on1 9680 nM
Cc1ccc(/C=N/Nc2nc3ccccc3s2)o1 790 nM
COc1ccc(NC(=O)c2cc3ccccn3n2)cc1 958 nM
Cc1csc(SCc2nnc(-c3ccccc3Br)o2)n1 4680 nM
N#CC1=C2SC=C(c3ccc(Br)cc3)N2CCCC1=O 19400 nM
Cc1ccn2cc(-c3cc4ccccc4oc3=O)nc2c1 137 nM
Cc1nc(NC(=O)c2csc3ccccc23)sc1C 943 nM
O=C(COc1ccccc1Cl)Nc1ccc(Cl)cn1 15400 nM
Nc1cccn2c(-c3ccc(Cl)c(Cl)c3)cnc12 2680 nM
Cc1nc(N)sc1N=Nc1ccc(Br)cc1 7000 nM
CCOC(=O)c1sc(=NC(=O)c2cccs2)n(C)c1C 778 nM
CSc1ccc(/C=C/c2ccc3cccc(O)c3n2)cc1 2490 nM
Cc1cc(C)n2cc(COc3ccc4ccccc4c3)nc2n1 1830 nM
Cc1ccccc1/C=C1\CCCc2ccccc2C1=O 24900 nM
CCOC(=O)CSc1nc2cc(C)ccc2cc1C#N 1100 nM
COc1cccc(-c2noc(-c3cccs3)n2)c1 2180 nM
Cc1ccc(-c2nc3ccccc3[nH]2)s1 6090 nM
Cc1ccc(C)c(NC(=O)c2ccc3ccccc3n2)c1 1880 nM
Fc1ccccc1SCc1nnc(-c2ccccc2Br)o1 818 nM
Clc1ccccc1-c1nnc(-c2ccc3c(c2)OCO3)o1 1410 nM
COc1cccc(N(C(=O)c2nc3nccc(C)n3n2)c2nc3ccccc3s2)c1 7220 nM
Cc1ccc(/C=N/Nc2cccc3cccnc23)c(O)c1 9470 nM
COc1ccc(C(=O)Nc2cc(OC)nc(OC)n2)cc1 12000 nM
Cc1noc(/C=C/Nc2ccc(F)cc2F)c1[N+](=O)[O-] 2360 nM
Cc1ccc(-c2nc(Nc3ccccc3)n[nH]2)cc1 2290 nM
COc1cc2c(cc1NC(=O)C1CCCO1)oc1ccccc12 (centres undefined) 5780 nM
CC(=O)c1ccc(NC(=O)/C(Cl)=C/c2ccccc2)cc1 4310 nM
Cc1cc(/C=C(\C#N)C(=O)Nc2ccccc2F)c(C)[nH]1 28700 nM
O=C(c1ccccc1)c1cnc(-c2ccc(Cl)cc2)s1 1250 nM
COc1cc(SC)ccc1C(=O)Nc1ccc2c(c1)OCO2 1290 nM
CC(=O)CSc1nc2cc3c(cc2cc1C#N)OCCO3 104 nM
CCCCc1ccc(-c2nc(-c3ccncc3)no2)cc1 4140 nM
Cc1ccc(S(=O)(=O)/N=C(/NC(=S)Nc2ccccc2)c2ccccc2)cc1 23500 nM
CSc1ccc(/C=C/C(=O)Nc2ccccc2)cc1 242 nM
O=C(NCCCn1ccnc1)c1cc(-c2cccs2)on1 24100 nM
Cc1occc1C(=O)Nc1ccc2ccccc2c1 3700 nM
COc1ccc2cc(-c3cc(C(=O)O)c4ccccc4n3)ccc2c1 1140 nM
COC(=O)c1ccc(-c2nc3ccc(C)cc3o2)cc1 3300 nM
Cc1ccc(S/C=C\C(=O)c2ccccc2)cc1 1960 nM
O=C(O)c1ccc(N/N=C/c2cn(-c3ccccc3)nc2-c2cccs2)cc1 1700 nM
CCOc1cc(/C=N/Nc2cccc(C(=O)O)c2)ccc1OC(=O)c1ccccc1 4000 nM
O=C(/C=C/Nc1ccc(Oc2ccccc2)cc1)c1ccco1 1210 nM
CC(C)(C)c1ccc2c(c1)C(=O)c1ccccc1C2=O 3190 nM
COc1ccc(/C=N/Nc2nc3ccccc3o2)cc1O 2140 nM
COc1ccc2c(=O)c(-c3nc(C)cs3)coc2c1 1080 nM
Nc1cccc(-c2nc3ccccc3s2)c1 1410 nM
c1ccc2c(c1)CCN(c1nc3cc4c(cc3s1)OCO4)C2 524 nM
Cc1ccc(-n2c(C)cc(C(=O)CSc3nnnn3C)c2C)cc1 1320 nM
Cc1ccc(C(=O)Nc2nnc(SCC(=O)N3CCCc4ccccc43)s2)cc1 1660 nM
CC(=O)Nc1nc2ccc(-c3nc4ccccc4o3)cc2s1 1460 nM
COc1ccc(C2CC(c3c(O)cc(C)oc3=O)=NCCS2)c(OC)c1 (centres undefined) 2330 nM
COc1ccc(NC(=O)c2nc3ccccc3s2)cc1 461 nM
CC(C)N=c1scc(-c2ccco2)n1/N=C/c1ccc(O)c(O)c1 6500 nM
O=[N+]([O-])c1ccccc1OCc1nc(-c2cccs2)no1 1720 nM
COc1ccc2nc(NC(=O)Nc3ccccc3)sc2c1 899 nM
COc1ccc(-c2cc(=O)c3cc(O)ccc3o2)cc1 6990 nM
COc1ccc(-c2csc(NCc3ccco3)n2)cc1 3700 nM
Oc1ccc(CN2CCN(Cc3ccccc3)CC2)c2cccnc12 5240 nM
NC(=O)c1ccccc1N/C=C/C(=O)c1ccc(Cl)cc1 5140 nM
CC(=O)Oc1ccc(Oc2ccc(-c3noc(C)n3)cc2)cc1 2840 nM
CCC(C)c1ccc(NC(=O)c2cccs2)cc1 (centres undefined) 734 nM
COc1ccc2nc(-c3ccccc3)[nH]c2c1 1320 nM
CC(=O)Nc1cccc(-c2csc(Nc3ccccn3)n2)c1 2670 nM
Cc1ccc(C(=O)Nc2ccc3nccnc3c2)cc1 1110 nM
Clc1c(CSc2nc3ccccc3o2)nc2sccn12 2410 nM
O=C(/C=C/c1ccccc1[N+](=O)[O-])Nc1ccccc1 10400 nM
N#C/C(=N\Nc1cccc(F)c1)C(=N)N1CCCCCC1 1640 nM
C(=N\Nc1nc2ccccc2s1)/c1ccco1 2320 nM
CCOC(=O)c1sc(NC(=O)c2ccccc2)cc1C 5740 nM
Cc1ccc(NC(=O)c2ccccc2O)cc1 3230 nM
O=C(Nc1nc2c(s1)CCCC2)c1cccs1 1080 nM
CCN(CC)c1ccc(NC(=O)c2ccco2)cc1 2500 nM
CCOc1ccc(/C=N/Nc2ccccn2)cc1 1010 nM
CSc1ccc(C(=O)/C=C/c2ccc(N)cc2)cc1 3840 nM
Fc1ccc(-c2cnn3c(-c4cccs4)ccnc23)cc1 532 nM
CC(=O)Nc1cccc(-c2csc(Nc3ccc(Cl)cn3)n2)c1 2200 nM
COC(=O)c1sc(NC(=O)c2cc3c(s2)CCCC3)nc1C 13600 nM
COc1cc(/C=N/Nc2nc3ccccc3s2)ccc1OC(=O)c1ccccc1F 1420 nM
Clc1ccc(-c2nnc(-c3ccccc3Cl)o2)cc1 2360 nM
COc1cc(/C=N/N(C)c2ccccc2)ccc1O 2640 nM
CCOc1ccc2nc(NC(=S)N(C)C)sc2c1 17300 nM
COc1ccc(-c2nc(-c3ccc(Br)cc3)no2)c(OC)c1 2560 nM
Nc1nn(-c2ccccc2)c(N)c1N=Nc1ccccc1F 1010 nM
O=C(N/N=C/c1cccc(F)c1)c1csc2c1CCCC2 21900 nM
O=C(c1ccccc1)c1cnc(Nc2ccccc2Cl)s1 7970 nM
COc1ccc(-c2nc3ccc([N+](=O)[O-])cc3[nH]2)cc1 1660 nM
O=C(Nc1ccc2c(c1)OCCO2)c1ccc2ccccc2n1 1440 nM

— PubChem BioAssay AID1241 (SRMLSC, 2008)
